Laboratory results published in ChEMBL document CHEMBL3627672, “Structure-activity relationship study of syringolin A as a potential anticancer agent” (Bioorg Med Chem Lett, 2015).

Tests used:
A-431 = assay: Antiproliferative activity against human A431 cells after 72 hrs by oxyluciferin luminescence assay; details: A-431, 72 h
HCT-116 = assay: Antiproliferative activity against human HCT116 cells after 72 hrs by oxyluciferin luminescence assay; details: HCT-116, 72 h
RKO = assay: Antiproliferative activity against human RKO cells after 72 hrs by oxyluciferin luminescence assay
[1] = Antiproliferative activity against human TOV21G cells after 72 hrs by oxyluciferin luminescence assay
CCRF-CEM = assay: Antiproliferative activity against human CCRF-CEM cells after 72 hrs by oxyluciferin luminescence assay
[2] = Antiproliferative activity against human RPMI8266 cells after 72 hrs by oxyluciferin luminescence assay; details: RPMI8266, 72 h

| Compound | IC50 (A-431) | IC50 (HCT-116) | IC50 (RKO) | IC50 [1] | IC50 (CCRF-CEM) | IC50 [2] |
| --- | --- | --- | --- | --- | --- | --- |
| CCCCCCCCCC(=O)N[C@@H](Cc1cccc2ccccc12)C(=O)N[C@H]1/C=C/CCNC(=O)/C=C/[C@H](C(C)C)NC1=O | 29.3 nM | 31 nM | 31.3 nM | 13.2 nM | 1.5 nM | 7.4 nM |
| CCCCCCCCCC(=O)N[C@@H](Cc1ccc2ccccc2c1)C(=O)N[C@H]1/C=C/CCNC(=O)/C=C/[C@H](C(C)C)NC1=O | 17.8 nM | 18.5 nM | 15.2 nM | 14.1 nM | 5 nM | 10.9 nM |
| CCCCCCCCCC(=O)N[C@@H](Cc1ccco1)C(=O)N[C@H]1/C=C/CCNC(=O)/C=C/[C@H](C(C)C)NC1=O | 29.7 nM | 26.7 nM | 20.1 nM | 22.3 nM | 24.9 nM | 24.1 nM |
| CCCCCCCCCC(=O)N[C@@H](Cc1cccs1)C(=O)N[C@H]1/C=C/CCNC(=O)/C=C/[C@H](C(C)C)NC1=O | 18.7 nM | 15.5 nM | 20.8 nM | 16.7 nM | 11 nM | 14.4 nM |
| CCCCCCCCCC(=O)N[C@@H](Cc1ccsc1)C(=O)N[C@H]1/C=C/CCNC(=O)/C=C/[C@H](C(C)C)NC1=O | 15 nM | 9.1 nM | 11.3 nM | 10.2 nM | 4.2 nM | 5.7 nM |
| CCCCCCCCCC(=O)N[C@@H](Cc1c[nH]c2ccccc12)C(=O)N[C@H]1/C=C/CCNC(=O)/C=C/[C@H](C(C)C)NC1=O | 45.5 nM | 44.5 nM | 39.4 nM | 13.5 nM | 16.8 nM | 27.5 nM |
| CCCCCCCCCC(=O)N(C)[C@@H](Cc1ccccc1)C(=O)N[C@H]1/C=C/CCNC(=O)/C=C/[C@H](C(C)C)NC1=O | > 1000 nM | > 1000 nM | > 1000 nM | > 1000 nM | 197 nM | > 1000 nM |
| CCCCC(=O)N[C@@H](Cc1ccccc1)C(=O)N[C@H]1/C=C/CCNC(=O)/C=C/[C@H](C(C)C)NC1=O | 413 nM | 402 nM | 415 nM | 427 nM | 61.1 nM | 138 nM |
| CCCCCC(=O)N[C@@H](Cc1ccccc1)C(=O)N[C@H]1/C=C/CCNC(=O)/C=C/[C@H](C(C)C)NC1=O | 128 nM | 61.4 nM | 52.6 nM | 131 nM | 28.6 nM | 42.6 nM |
| CCCCCCC(=O)N[C@@H](Cc1ccccc1)C(=O)N[C@H]1/C=C/CCNC(=O)/C=C/[C@H](C(C)C)NC1=O | 57.7 nM | 24.5 nM | 33.4 nM | 60.7 nM | 11.6 nM | 18.9 nM |
| CCCCCCCC(=O)N[C@@H](Cc1ccccc1)C(=O)N[C@H]1/C=C/CCNC(=O)/C=C/[C@H](C(C)C)NC1=O | 20.2 nM | 14 nM | 14.8 nM | 19 nM | 6.6 nM | 9.9 nM |
| CCCCCCCCC(=O)N[C@@H](Cc1ccccc1)C(=O)N[C@H]1/C=C/CCNC(=O)/C=C/[C@H](C(C)C)NC1=O | 18.2 nM | 7.1 nM | 8.6 nM | 10.4 nM | 1.8 nM | 8.2 nM |
| CCCCCCCCCCC(=O)N[C@@H](Cc1ccccc1)C(=O)N[C@H]1/C=C/CCNC(=O)/C=C/[C@H](C(C)C)NC1=O | 38.2 nM | 36 nM | 19.2 nM | 19.3 nM | 7.4 nM | 14.4 nM |
| CCCCCCCCCCCC(=O)N[C@@H](Cc1ccccc1)C(=O)N[C@H]1/C=C/CCNC(=O)/C=C/[C@H](C(C)C)NC1=O | 44.8 nM | 37.4 nM | 33.6 nM | 27.5 nM | 14.8 nM | 29.6 nM |
| CCCCCCCCCCCCC(=O)N[C@@H](Cc1ccccc1)C(=O)N[C@H]1/C=C/CCNC(=O)/C=C/[C@H](C(C)C)NC1=O | 82.2 nM | 73.9 nM | 49.8 nM | 48.3 nM | 36.9 nM | 88.3 nM |
| CCCCCCCCCCCCCC(=O)N[C@@H](Cc1ccccc1)C(=O)N[C@H]1/C=C/CCNC(=O)/C=C/[C@H](C(C)C)NC1=O | 430 nM | 413 nM | 470 nM | 425 nM | 409 nM | 735 nM |
| CCCCCCCCCC(=O)N[C@H](C(=O)N[C@H]1/C=C/CCNC(=O)/C=C/[C@H](C(C)C)NC1=O)c1ccccc1 | 27.8 nM | 45.1 nM | 20.8 nM | 9.5 nM | 11 nM | 26.9 nM |
| CCCCCCCCCC(=O)N[C@@H](CCc1ccccc1)C(=O)N[C@H]1/C=C/CCNC(=O)/C=C/[C@H](C(C)C)NC1=O | 16.8 nM | 28.4 nM | 27 nM | 9.6 nM | 11.6 nM | 14.9 nM |
| CCCCCCCCCC(=O)N[C@@H](CCCc1ccccc1)C(=O)N[C@H]1/C=C/CCNC(=O)/C=C/[C@H](C(C)C)NC1=O | 31.7 nM | 40.6 nM | 39.8 nM | 8.5 nM | 9.4 nM | 23.5 nM |

| Compound | IC50 (A-431) | IC50 (HCT-116) | IC50 (RKO) | IC50 [1] | IC50 (CCRF-CEM) | IC50 [2] |
| --- | --- | --- | --- | --- | --- | --- |
| CCCCCCCCCC(=O)N[C@@H](CC1CCCCC1)C(=O)N[C@H]1/C=C/CCNC(=O)/C=C/[C@H](C(C)C)NC1=O | 52.8 nM | 38.6 nM | 35.1 nM | 48.9 nM | 21.4 nM | 21 nM |
| CCCCCCCCCC(=O)N[C@@H](Cc1ccccc1F)C(=O)N[C@H]1/C=C/CCNC(=O)/C=C/[C@H](C(C)C)NC1=O | 14.9 nM | 7.1 nM | 6.8 nM | 8.2 nM | 3.3 nM | 5.6 nM |
| CCCCCCCCCC(=O)N[C@@H](Cc1cccc(F)c1)C(=O)N[C@H]1/C=C/CCNC(=O)/C=C/[C@H](C(C)C)NC1=O | 27.7 nM | 15 nM | 11.8 nM | 21.1 nM | 5.5 nM | 8.8 nM |
| CCCCCCCCCC(=O)N[C@@H](Cc1ccc(F)cc1)C(=O)N[C@H]1/C=C/CCNC(=O)/C=C/[C@H](C(C)C)NC1=O | 33.2 nM | 23.1 nM | 14.8 nM | 19 nM | 4.9 nM | 8.6 nM |
| CCCCCCCCCC(=O)N[C@@H](Cc1ccccc1Cl)C(=O)N[C@H]1/C=C/CCNC(=O)/C=C/[C@H](C(C)C)NC1=O | 9.9 nM | 8.7 nM | 7.4 nM | 7.1 nM | 8.2 nM | 8.8 nM |
| CCCCCCCCCC(=O)N[C@@H](Cc1cccc(Cl)c1)C(=O)N[C@H]1/C=C/CCNC(=O)/C=C/[C@H](C(C)C)NC1=O | 18.4 nM | 15.6 nM | 14.9 nM | 13.8 nM | 5.2 nM | 9.4 nM |
| CCCCCCCCCC(=O)N[C@@H](Cc1ccc(Cl)cc1)C(=O)N[C@H]1/C=C/CCNC(=O)/C=C/[C@H](C(C)C)NC1=O | 23.3 nM | 21.7 nM | 19.6 nM | 12.3 nM | 4.5 nM | 12 nM |
| CCCCCCCCCC(=O)N[C@@H](Cc1ccccc1Br)C(=O)N[C@H]1/C=C/CCNC(=O)/C=C/[C@H](C(C)C)NC1=O | 13.4 nM | 13.4 nM | 13 nM | 9.6 nM | 3.9 nM | 9.4 nM |
| CCCCCCCCCC(=O)N[C@@H](Cc1cccc(Br)c1)C(=O)N[C@H]1/C=C/CCNC(=O)/C=C/[C@H](C(C)C)NC1=O | 15.5 nM | 18 nM | 16.3 nM | 12.8 nM | 4.6 nM | 9.6 nM |
| CCCCCCCCCC(=O)N[C@@H](Cc1ccc(Br)cc1)C(=O)N[C@H]1/C=C/CCNC(=O)/C=C/[C@H](C(C)C)NC1=O | 25.6 nM | 33.4 nM | 33.7 nM | 24.1 nM | 18.4 nM | 28.3 nM |
| CCCCCCCCCC(=O)N[C@@H](Cc1ccccc1C)C(=O)N[C@H]1/C=C/CCNC(=O)/C=C/[C@H](C(C)C)NC1=O | 8.9 nM | 12 nM | 9.5 nM | 6.2 nM | 3.6 nM | 8.8 nM |
| CCCCCCCCCC(=O)N[C@@H](Cc1cccc(C)c1)C(=O)N[C@H]1/C=C/CCNC(=O)/C=C/[C@H](C(C)C)NC1=O | 6.9 nM | 7 nM | 7.3 nM | 6.2 nM | 3.5 nM | 8.4 nM |
| CCCCCCCCCC(=O)N[C@@H](Cc1ccc(C)cc1)C(=O)N[C@H]1/C=C/CCNC(=O)/C=C/[C@H](C(C)C)NC1=O | 18.9 nM | 28.1 nM | 15.5 nM | 9.1 nM | 1.9 nM | 4.8 nM |
| CCCCCCCCCC(=O)N[C@@H](Cc1ccc(O)cc1)C(=O)N[C@H]1/C=C/CCNC(=O)/C=C/[C@H](C(C)C)NC1=O | 134 nM | 68.5 nM | 43.7 nM | 151 nM | 32.3 nM | 28.3 nM |
| CCCCCCCCCC(=O)N[C@@H](Cc1ccccn1)C(=O)N[C@H]1/C=C/CCNC(=O)/C=C/[C@H](C(C)C)NC1=O | 23.5 nM | 19.2 nM | 18.2 nM | 10.7 nM | 8.6 nM | 15 nM |
| CCCCCCCCCC(=O)N[C@@H](Cc1cccnc1)C(=O)N[C@H]1/C=C/CCNC(=O)/C=C/[C@H](C(C)C)NC1=O | 24.4 nM | 29.4 nM | 17.1 nM | 5.1 nM | 27.5 nM | 15.5 nM |
| CCCCCCCCCC(=O)N[C@@H](Cc1ccncc1)C(=O)N[C@H]1/C=C/CCNC(=O)/C=C/[C@H](C(C)C)NC1=O | 50.3 nM | 56.3 nM | 47.3 nM | 14.5 nM | 35.7 nM | 72.6 nM |
| CCCCCCCCCC(=O)N[C@@H](Cc1ccc(-c2ccccc2)cc1)C(=O)N[C@H]1/C=C/CCNC(=O)/C=C/[C@H](C(C)C)NC1=O | 21.9 nM | 27.1 nM | 30.4 nM | 16.8 nM | 12.3 nM | 19.7 nM |
